Read-outs that look alike come from different tables or passages of the source.

The results in this text go back to patent US20150306049A1, “IMMEDIATE RELEASE FORMULATIONS OF CINACALCET” (K.H.S. PHARMA HOLDING GMBH, priority 2012, published 2015).

The conditions of this data set: for % Dissolution: 200 mg in 900 ml 0.1 N HCl, 37.0°C, 75 rpm. How it is done: 200mg of cinacalcet HCl of different D50 values was dropped into a vessel containing 900 ml of dissolution medium (0.1 N HCl) at 37.0+/−0.5° C. and stirred at 75 rpm.

For `C[C@@H](NCCCc1cccc(C(F)(F)F)c1)c1cccc2ccccc12.Cl` [cinacalcet HCl], the “solubility (dissolution) compared with larger particle sizes” value is given as “much lower solubility”. Where the note is “D50 = 20 μm, 0 min, D50 = 89 μm after 60 min set to 100%”, the “% Dissolution” value is on record as 0%. The “% Dissolution” value (D50 = 20 μm, 15 min, D50 = 89 μm after 60 min set to 100%) turned out to be 24%. The “% Dissolution” value (D50 = 20 μm, 30 min, D50 = 89 μm after 60 min set to 100%) is 52%. The “% Dissolution” value (D50 = 20 μm, 45 min, D50 = 89 μm after 60 min set to 100%) is 74%. Also, the “% Dissolution” value (D50 = 20 μm, 60 min, D50 = 89 μm after 60 min set to 100%) was found to be 86%. Also, the “% Dissolution” value (D50 = 82 μm, 0 min, D50 = 89 μm after 60 min set to 100%) was 0%. For the same compound, the “% Dissolution” value (D50 = 82 μm, 15 min, D50 = 89 μm after 60 min set to 100%) is given as 90%. Besides, the “% Dissolution” value (D50 = 82 μm, 30 min, D50 = 89 μm after 60 min set to 100%) worked out at 96%. In addition, for the setting “D50 = 82 μm, 45 min, D50 = 89 μm after 60 min set to 100%”, the “% Dissolution” value came to 98%. The “% Dissolution” value (D50 = 82 μm, 60 min, D50 = 89 μm after 60 min set to 100%) is given as 98%. For the same compound, the “% Dissolution” value (D50 = 89 μm, 0 min, D50 = 89 μm after 60 min set to 100%) came to 0%. Also, the “% Dissolution” value (D50 = 89 μm, 15 min, D50 = 89 μm after 60 min set to 100%) was determined as 87%. Besides, the “% Dissolution” value (D50 = 89 μm, 30 min, D50 = 89 μm after 60 min set to 100%) was found to be 98%. In addition, the “% Dissolution” value (D50 = 89 μm, 45 min, D50 = 89 μm after 60 min set to 100%) stood at 99%. Besides, the “% Dissolution” value (D50 = 89 μm, 60 min, set to 100%) came to 100%.
